Test results from paper PMC3707110 (Nature methods, 2012).
Non-standard residues stand in square brackets, D forms with d. Residues, ends and D or L forms follow the SMILES beside them. *: point of attachment. Sta = CC(C)C[C@H](N)[C@@H](O)CC(=O)O; Isovaleryl = CC(C)CC(=O)*

Assays:
[1] = test system: peptidases in conditioned media from pancreatic ductal adenocarcinoma cells; format: biochemical, mouse; conditions: media pre-treated 30 minutes at room temperature with 1 μM E64, 1 μM 1,10-Phenanthroline or 400 nM pepstatin; pH 5.2; within 1200 minutes
Granzyme B = conditions: fluorescent substrate containing the sequence; previous studies; cited from earlier work

| Compound | effect on cleavage sites / cleavage signature of conditioned media [1] | catalytic efficiency (kcat/KM) (Granzyme B) |
| --- | --- | --- |
| c1cnc2c(c1)ccc1cccnc12 [1,10-phenanthroline] | majority of cleavage sites remained unchanged |  |
| CC(C)C[C@H](NC(=O)[C@H]1O[C@@H]1C(=O)O)C(=O)NCCCCN=C(N)N [E-64] | majority of cleavage sites remained unchanged |  |
| CC(C)CC(=O)N[C@H](C(=O)N[C@H](C(=O)N[C@@H](CC(C)C)[C@@H](O)CC(=O)N[C@@H](C)C(=O)N[C@@H](CC(C)C)[C@@H](O)CC(=O)O)C(C)C)C(C)C [pepstatin] (Isovaleryl-VV[Sta]A[Sta]-OH) | completely altered the cleavage signature |  |
| VVAD↓SSMES |  | 116,000 M^−1 s^−1 |
